“And” between values parts separate entries of the source, which are not always exact repeats. Equal values may be shown once. Inconclusive results and toxic doses are left out.
Tested on: P388 leukemia ip, CD2F1 mice, survival T/C
Experiment: NCI In Vivo Anticancer Drug Screen. Data for tumor model P388 Leukemia (intraperitoneal) in CD2F1 (CDF1) mice
Settings: endpoint: median survival time, higher = longer survival
Method in brief: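 Mice carrying the transplanted tumor received test compound or vehicle. Survival was recorded in each group, and the value is the treated-group measurement divided by that of the vehicle-treated control group.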

[1] = dose: 50.0 mg/kg/injection, schedule: Q01DX005 (ip), vehicle: saline with Tween-80
[2] = dose: 100.0 mg/kg/injection, schedule: Q01DX005 (ip), vehicle: saline with Tween-80
[3] = dose: 200.0 mg/kg/injection, schedule: Q01DX005 (ip), vehicle: saline with Tween-80
[4] = dose: 50.0 mg/kg/injection, schedule: Q01DX005 (ip), vehicle: Klucel (hydroxypropylcellulose) (HPC)
[5] = dose: 100.0 mg/kg/injection, schedule: Q01DX005 (ip), vehicle: Klucel (hydroxypropylcellulose) (HPC)
[6] = dose: 200.0 mg/kg/injection, schedule: Q01DX005 (ip), vehicle: Klucel (hydroxypropylcellulose) (HPC)
[7] = dose: 100.0 mg/kg/injection, schedule: Q01DX001 (ip), vehicle: saline with Tween-80
[8] = dose: 200.0 mg/kg/injection, schedule: Q01DX001 (ip), vehicle: saline with Tween-80
[9] = dose: 12.5 mg/kg/injection, schedule: Q01DX009 (ip), vehicle: saline with Tween-80
[10] = dose: 50.0 mg/kg/injection, schedule: Q01DX009 (ip), vehicle: saline with Tween-80
[11] = dose: 50.0 mg/kg/injection, schedule: Q01DX005 (ip), vehicle: saline
[12] = dose: 100.0 mg/kg/injection, schedule: Q01DX005 (ip), vehicle: saline
[13] = dose: 200.0 mg/kg/injection, schedule: Q01DX005 (ip), vehicle: saline
[14] = dose: 60.0 mg/kg/injection, schedule: Q01DX005 (ip), vehicle: saline with Tween-80
[15] = dose: 120.0 mg/kg/injection, schedule: Q01DX005 (ip), vehicle: saline with Tween-80
[16] = dose: 240.0 mg/kg/injection, schedule: Q01DX005 (ip), vehicle: saline with Tween-80
[17] = dose: 50.0 mg/kg/injection, schedule: Q01DX009 (ip), vehicle: saline
[18] = dose: 100.0 mg/kg/injection, schedule: Q01DX009 (ip), vehicle: saline
[19] = dose: 200.0 mg/kg/injection, schedule: Q01DX009 (ip), vehicle: saline
[20] = dose: 50.0 mg/kg/injection, schedule: Q01DX009 (ip), vehicle: Klucel (hydroxypropylcellulose) (HPC)
[21] = dose: 100.0 mg/kg/injection, schedule: Q01DX009 (ip), vehicle: Klucel (hydroxypropylcellulose) (HPC)
[22] = dose: 200.0 mg/kg/injection, schedule: Q01DX009 (ip), vehicle: Klucel (hydroxypropylcellulose) (HPC)
[23] = dose: 25.0 mg/kg/injection, schedule: Q04DX002 (ip), vehicle: saline with Tween-80
[24] = dose: 50.0 mg/kg/injection, schedule: Q04DX002 (ip), vehicle: saline with Tween-80
[25] = dose: 100.0 mg/kg/injection, schedule: Q04DX002 (ip), vehicle: saline with Tween-80
[26] = dose: 200.0 mg/kg/injection, schedule: Q04DX002 (ip), vehicle: saline with Tween-80
[27] = dose: 25.0 mg/kg/injection, schedule: Q01DX009 (ip), vehicle: saline with Tween-80
[28] = dose: 100.0 mg/kg/injection, schedule: Q01DX009 (ip), vehicle: saline with Tween-80
[29] = dose: 200.0 mg/kg/injection, schedule: Q01DX009 (ip), vehicle: saline with Tween-80

For `CCOc1ccccc1NC(=O)CC(=O)N1N=C(c2ccccc2)C(N=Nc2ccc(S(N)(=O)=O)cc2)C1=O` (configuration not stated), the T/C [1] was 110 % of control, the T/C [2] was 102 % of control and the T/C [3] was 102 % of control.

In the case of `COC(=O)C(C)NC(=O)C(CCSC)NC(=O)OC(C)(C)C` (configuration not stated), the T/C (dose: 25.0 mg/kg/injection, schedule: Q01DX005 (ip), vehicle: Klucel (hydroxypropylcellulose) (HPC)) is reported as 98 % of control, the T/C [4] is reported as 100 % of control and 102 % of control and the T/C [5] is reported as 95 % of control. For the same molecule, the T/C [6] was 104 % of control.

In the case of `c1ccc(P2(c3ccccc3)(c3ccccc3)C3C4C5C6C4C2C6C53)cc1` (configuration not stated), the T/C (dose: 50.0 mg/kg/injection, schedule: Q01DX001 (ip), vehicle: saline with Tween-80) is reported as 109 % of control, the T/C [7] is reported as 104 % of control and the T/C [8] is reported as 113 % of control.

With `O=[N+]([O-])c1cn[n+]([O-])c2ccccc12` the T/C [9] was 119 % of control and the T/C [10] was 86 % of control.

`CCOC1=NC2(c3ccccc3)c3ccccc3SC12C` (configuration not stated) was tested, and the T/C [4] was 98 % of control, the T/C [5] was 100 % of control and the T/C [6] was 93 % of control.

With `NC(=O)NCP(=O)(CNC(N)=O)CNC(N)=O` the T/C [11] was 100 % of control, the T/C [12] was 97 % of control and the T/C [13] was 95 % of control.

With `Cc1ccc(C)n1-c1ccc(OCC(N)=O)cc1` the T/C [14] was 104 % of control, the T/C [15] was 97 % of control and the T/C [16] was 90 % of control.

In the case of `CC(C)C(NN)C(=O)O` (configuration not stated), the T/C [1] is reported as 98 % of control and the T/C [2] is reported as 116 % of control.

For `CC1(C)SC2C(NC(=O)C(N)c3ccc(O)cc3)C(=O)N2C1C(=O)O` (configuration not stated), the T/C [17] was 113 % of control, the T/C [18] was 116 % of control and the T/C [19] was 113 % of control.

For `CN1CCc2sccc2C(c2ccccc2)O1` (configuration not stated), the T/C [4] was 112 % of control, the T/C [5] was 104 % of control and the T/C [6] was 113 % of control.

In the case of `CC(C)Sc1nc2ccc(NC(=O)/C=C/C(=O)O)cc2s1`, the T/C [20] is reported as 100 % of control, the T/C [21] is reported as 104 % of control and the T/C [22] is reported as 101 % of control.

In the case of `COC1=C(OC)C(=O)C2=C(OCO2)C1=O`, the T/C [14] is reported as 104 % of control, the T/C [15] is reported as 100 % of control and the T/C [16] is reported as 107 % of control.

In the case of `C/C(=N\NC(N)=Nc1ccc(C)cc1)c1ccc2c(c1)Cc1ccccc1-2`, the T/C [23] is reported as 91 % of control, the T/C [24] is reported as 99 % of control and the T/C [25] is reported as 97 % of control.

In the case of `N#CN`, the T/C (dose: 12.5 mg/kg/injection, schedule: Q01DX009 (ip), vehicle: suspension in saline) is reported as 103 % of control, the T/C (dose: 25.0 mg/kg/injection, schedule: Q01DX009 (ip), vehicle: suspension in saline) is reported as 97 % of control and the T/C [17] is reported as 91 % of control and 103 % of control. The T/C (dose: 50.0 mg/kg/injection, schedule: Q01DX009 (ip), vehicle: suspension in saline) was 107 % of control, the T/C [18] was 101 % of control and 106 % of control and the T/C [19] was 102 % of control.

In the case of `NC(=S)c1ccc(C2Nc3ccccc3N2)cc1`, the T/C [23] is reported as 95 % of control, the T/C [24] is reported as 92 % of control and the T/C [25] is reported as 87 % of control and 91 % of control.

For `COc1ccc(C(=O)N2CC(OC(C)=O)=CC2=O)cc1`, the T/C [20] was 107 % of control, the T/C [21] was 110 % of control and the T/C [22] was 106 % of control.

`COc1ccc2ncc(C)c(COC(C)=O)c2c1` was tested, and the T/C [25] was 102 % of control, the T/C [26] was 93 % of control and the T/C (dose: 400.0 mg/kg/injection, schedule: Q04DX002 (ip), vehicle: saline with Tween-80) was 97 % of control.

With `O=C(O)CC(=O)N=c1snc(Nc2ccccc2)n1-c1ccccc1` the T/C (dose: 6.25 mg/kg/injection, schedule: Q01DX009 (ip), vehicle: Klucel (hydroxypropylcellulose) (HPC)) was 101 % of control, the T/C (dose: 12.5 mg/kg/injection, schedule: Q01DX009 (ip), vehicle: Klucel (hydroxypropylcellulose) (HPC)) was 102 % of control and the T/C (dose: 25.0 mg/kg/injection, schedule: Q01DX009 (ip), vehicle: Klucel (hydroxypropylcellulose) (HPC)) was 99 % of control.

For `O=C(OC1CC2CCC(C1)S2)c1ccco1` (configuration not stated), the T/C [24] was 109 % of control, the T/C [25] was 109 % of control and the T/C [26] was 110 % of control.

With `ClC1=CN(C2=NCCC2)CC1` the T/C (dose: 6.25 mg/kg/injection, schedule: Q01DX009 (ip), vehicle: saline with Tween-80) was 101 % of control, the T/C [9] was 103 % of control and the T/C [27] was 97 % of control.

For `ClC1CC(C(Cl)(Cl)Cl)CCC1C(Cl)(Cl)Cl` (configuration not stated), the T/C [1] was 98 % of control, the T/C [2] was 96 % of control and the T/C [3] was 96 % of control.

For `CSCCC(N)C(=O)OCN1C(=O)C2C3C=CC(C2C1=O)C1C2C(=O)N(COC(=O)C(N)CCSC)C(=O)C2C31` (configuration not stated), the T/C (dose: 12.5 mg/kg/injection, schedule: Q01DX009 (ip), vehicle: saline) was 117 % of control, the T/C (dose: 25.0 mg/kg/injection, schedule: Q01DX009 (ip), vehicle: saline) was 122 % of control and 93 % of control and the T/C [17] was 109 % of control. The T/C [18] was 171 % of control and 200 % of control.

For `Cc1cc(=NC(C)(C)C)nc2c3ccccc3c(Cl)cn12`, the T/C (dose: 1.56 mg/kg/injection, schedule: Q01DX005 (ip), vehicle: saline with Tween-80) was 100 % of control, the T/C (dose: 3.13 mg/kg/injection, schedule: Q01DX005 (ip), vehicle: saline with Tween-80) was 100 % of control and the T/C (dose: 6.25 mg/kg/injection, schedule: Q01DX005 (ip), vehicle: saline with Tween-80) was 103 % of control and 98 % of control.

For `CCOC(=O)CSCC(N)=O`, the T/C [17] was 100 % of control, the T/C [18] was 100 % of control and the T/C [19] was 98 % of control.

With `Nc1cc([N+](=O)[O-])ccc1-c1ccc(NC(=O)CCNC=O)cc1` the T/C (dose: 12.5 mg/kg/injection, schedule: Q01DX009 (ip), vehicle: other) was 93 % of control, the T/C (dose: 25.0 mg/kg/injection, schedule: Q01DX009 (ip), vehicle: other) was 97 % of control and the T/C (dose: 50.0 mg/kg/injection, schedule: Q01DX009 (ip), vehicle: other) was 90 % of control. For the same molecule, the T/C (dose: 100.0 mg/kg/injection, schedule: Q01DX009 (ip), vehicle: other) was 93 % of control and the T/C (dose: 200.0 mg/kg/injection, schedule: Q01DX009 (ip), vehicle: other) was 91 % of control.

`ON(C=S)c1ccccc1` was tested, and the T/C [1] was 102 % of control, the T/C [2] was 105 % of control and the T/C [3] was 97 % of control.

For `O=C1c2cscc2C(=O)c2c(Cl)sc(Cl)c21`, the T/C [27] was 95 % of control.

With `CCCCn1nnc2cc(-c3c(N)nc(N)nc3CC)ccc21` the T/C [4] was 87 % of control, the T/C [5] was 89 % of control and the T/C [6] was 89 % of control.

In the case of `COc1cc2c(cc1OC)C13CCCC4(OCCO4)C1=CC2(C)O3` (configuration not stated), the T/C [10] is reported as 101 % of control, the T/C [28] is reported as 94 % of control and the T/C [29] is reported as 93 % of control.

In the case of `O=C1NN2CCN=C2c2ccncc21`, the T/C [11] is reported as 97 % of control, the T/C [12] is reported as 103 % of control and the T/C [13] is reported as 100 % of control.

With `CCC(=O)NC1=C(Cl)C(=O)C(NC(=O)CC)=C(Cl)C1=O` the T/C [20] was 98 % of control and the T/C [21] was 98 % of control.

In the case of `COC(c1ccc(OCc2ccccc2)cc1)C(Br)C(=O)c1ccc(Cl)cc1Cl` (configuration not stated), the T/C [10] is reported as 88 % of control, the T/C [28] is reported as 101 % of control and the T/C [29] is reported as 88 % of control.

For `Nc1ccc(OCCNS(=O)(=O)c2cccc(S(=O)(=O)F)c2)c(Cl)c1`, the T/C (dose: 37.5 mg/kg/injection, schedule: Q01DX001 (ip), vehicle: saline with Tween-80) was 95 % of control, the T/C (dose: 75.0 mg/kg/injection, schedule: Q01DX001 (ip), vehicle: saline with Tween-80) was 95 % of control and the T/C (dose: 150.0 mg/kg/injection, schedule: Q01DX001 (ip), vehicle: saline with Tween-80) was 90 % of control.

For `CN1CCC2c3c([nH]c4ccccc34)C(C)(C)OC2C1` (configuration not stated), the T/C [14] was 111 % of control, the T/C [15] was 113 % of control and the T/C [16] was 118 % of control.

`C/C(=C/Cc1ccccc1)C(=O)O` was tested, and the T/C [7] was 108 % of control, the T/C [8] was 108 % of control and the T/C (dose: 400.0 mg/kg/injection, schedule: Q01DX001 (ip), vehicle: saline with Tween-80) was 99 % of control.
